Here are results for 8 compounds from US9265706B2, “Lichesterinic acid and the derivatives of same as pigmentation inhibitors” (Centre National de la Recherche Scientifique—CNRS, priority 2012, dated 2016).

The subject of the assay is B16 cells. The assay is described as follows: Melanin content of murine B16 cells by absorbance at 405 nm, related to protein, relative to DMSO control. Conditions: for depigmenting activity compared with the positive control hydroquinone: FIG. 2, C9LA+ and C5LA+ given by way of indication. The class given is cell-based. As to the method: The cells are seeded in a 10 cm Petri dish at a density of 7×10^5 per dish and are incubated for 96 hours, with a defined concentration of lichen-derived molecule, which has been purified and solubilized in DMSO. After treatment, the cells are recovered by treatment with trypsin and washed twice with PBS. The number of cells recovered is estimated by counting using a hemocytometer. One and the same fraction is used to determine the melanin content and the protein concentration. The melanin content is determined by the absorbance at 405 nm (VersaMax Microplate Reader, Molecular Devices, USA) of the cell solution after solubilization of the melanin with 1M sodium hydroxide, for 15 min at 80° C. The protein concentration is determined according to the protocol of the “DC Protein Assay” kit developed by Bio-Rad laboratories, USA. For each sample treated, the melanin content is related to the amount of protein and expressed as a percentage relative to the control situation (DMSO solution alone). Each measurement is carried out in triplicate and each experiment is carried out independently a minimum of 3 times (except for the C9LA+ and C5LA+ derivatives given by way of indication).
FIGS. 1 and 2 bring together the results. These figures show the melanin content of the B16 cells treated for 96 h in the presence of a given molecule (FIG. 2), or of a (+)-lichesterinic acid ((+)LA)/(+)-protolichesterinic acid ((+)PLA)/(+)-roccellaric acid ((+)RA) mixture in a 60/25/15 weight ratio (FIG. 1).
Along the x-axis are the molecules tested with their concentrations expressed in μM.
Along the y-axis, the melanin content is expressed as a percentage relative to the control (DMSO alone=concentration of 0.1%).

The mark [1] stands for this setting: 96 h incubation, concentrations of 0.5 to 2 μM, relative to control, FIG. 2.

In the case of `CCCCCCCCCCCCC[C@H]1OC(=O)C(C)=C1C(=O)O` [(+)-lichesterinic acid], the “depigmenting activity compared with the positive control hydroquinone” value (96 h incubation) is recorded as “greater depigmenting activity”.

`CCCCC[C@H]1OC(=O)C(C)=C1C(=O)O` [C5LA+]: under “96 h incubation”, the “depigmenting activity compared with the positive control hydroquinone” value was “comparable depigmenting activity”. Still for that read-out and setting: for `CCCCCCCCC[C@H]1OC(=O)C(C)=C1C(=O)O` [C9LA+, (+)-3-methyl-5-nonylparaconic acid] the value was “greater depigmenting activity”. For `CCCCCCCCCCCCC[C@@H]1OC(=O)C(C)=C1C(=O)O` [LA−, (−)-lichesterinic acid], under setting [1], the “stimulation of melanin production” value was “+10% to +30%”. For `C=C1C(=O)O[C@H](CCCCCCCCCCCCC)[C@H]1C(=O)O` [PLA+, (+)-protolichesterinic acid], where the note is “same conditions, 0.25 μM, individually isolated product, results not given in figures”, the “decrease in the melanin level” value is “about −20%”. Regarding `Oc1ccc(O)cc1` [hydroquinone], under “96 h incubation, under the same conditions, concentration not given, FIG. 2”, the “decrease in the melanin level (depigmenting positive control)” value was −20%. In the case of `CCCCCCCCCCCCC[C@H]1OC(=O)[C@@H](C)[C@@H]1C(=O)O` [roccellaric acid, (+)-roccellaric acid], the “decrease in the melanin level” value (same conditions, 1 μM, individually isolated product, results not given in figures) is listed as “not significant”. As to (+)-protolichesterinic acid [PLA+], under setting [1], the “decrease in the melanin level” value is reported as 10% to 20%.
